Receptor-ligand binding constant data for one compound are collected here from patent US8535950B2, “Use of perfluoropolymer submicrometric latexes in the determination of molecular interactions by laser light scattering (LLS)” (Solvay Solexis S.p.A., priority 2005, dated 2013).

Structures are written as SMILES. Counter-ions that a name gives are not always drawn.

The subject of the assay is peptide sequence L-Lys-D-Ala-D-Ala. In words: Binding constant by laser light scattering (LLS) on perfluoropolymer latex particles coated with receptor-ended surfactant. From the text: More specifically the use comprises the following steps: • a) addition to a colloidal aqueous suspension or latex of particles having an average diameter between 5 and 200 nm, preferably between 40 and 80 nm, formed of a perfluorinated, semicrystalline or amorphous polymer, of a sequence of known volumes of an aqueous solution of a mixture containing from 50% to 99.5% by weight of an amphiphylic non ionic surfactant and from 0.5 to 50% by weight of a surfactant ended with a receptor, measuring after each addition the intensity of the scattered light by the suspension by Laser Scattering Light (LLS) and reporting it on a diagram in function of the progressively added solution volume, until reaching an asymptotic value (Ir); • b) addition to the suspension obtained in step a) of a sequence of known volumes of a ligand aqueous solution, measuring after each addition the intensity of the scattered light by the suspension by Laser Scattering Light (LLS) its reporting on a diagram in function of the progressively added solution volume (expressed as molar concentration [T0]), until reaching an asymptotic value and fitting the scattered light intensity data (I) in function of the ligand additions ([T0]) with formula (1) to obtain the receptor-ligand binding constant (K), wherein formula (1) is: […]

In the case of `CN[C@H](CC(C)C)C(=O)N[C@H]1C(=O)N[C@@H](CC(N)=O)C(=O)N[C@H]2C(=O)N[C@H]3C(=O)N[C@H](C(=O)N[C@H](C(=O)O)c4cc(O)cc(O)c4-c4cc3ccc4O)[C@H](O)c3ccc(c(Cl)c3)Oc3cc2cc(c3O[C@@H]2O[C@H](CO)[C@@H](O)[C@H](O)[C@H]2O[C@H]2C[C@](C)(N)[C@H](O)[C@H](C)O2)Oc2ccc(cc2Cl)[C@H]1O` [Vancomycin, Vancomycin hydrochloride hydrate], the receptor-ligand binding constant is, setting by setting: (Example 1: 0.1% latex, 78 nm particles of TFE copolymer with 40% by moles perfluoromethylvinylether, 0.4 millimole Vancomycin solution in 6 microlitre portions, Langmuir fit) 1.5e+06 mol⁻¹; (Example 2: 0.1% latex, 40 nm particles of TFE copolymer with 30% by moles TTD, 0.9 millimolar Vancomycin in 6 microlitre portions) 1.1e+06 mol⁻¹.
